Measured values as given in US20010051602A1, “Methods for increasing ApoE levels for the treatment of neurodegenerative disease” (priority 1997, published 2001).
Values joined by “and” are separate entries in the source; they are usually repeats but may differ in a detail not shown here. Identical values can stand only once.

Columns and labels:
[1] = tested on: ApoE; test: in vivo effect of probucol on ApoE levels in murine tissues, immunoblot densitometry; conditions: mice; for ApoE G/Dens (% Peak) / ApoE G/Dens-DD / ApoE G/DxA (% Total): pooled
Experimental: To extend the foregoing in vitro studies, the following animal study was conducted. […] At the end of ten days, the animals were sacrificed and the brain tissue collected, rapidly dissected, and the hippocampi were isolated. The livers, tissue, and blood were also collected. Tissue homogenates from all ten animals were pooled and the ApoE levels in the different tissues were determined by immunoblot.

[2] = tested on: Alzheimer's disease; test: clinical trial: ADAS-Cog (extended 117 point scale); type: in vivo, human
Experimental: Neuropsychological Assessment: The Alzheimer's Disease Assessment Scale, Cognitive Part (ADAS-Cog) (see Rosen et al., Am. J. Psychiatr., 141:1356-1364 (1984)) was used as an objective neuropsychological measure. It consists of a battery of neuropsychological tests for different cognitive functions. The battery comes to a single score with a maximum of 70 points and is administered in about 45 minutes to patients. A 117 point extended scale version of this test was also used (see Table 5). The extended 117 pt. […] The scoring method for this modified ADAS-Cog test ranges from 0 […].

[3] = tested on: Alzheimer's disease; test: clinical trial: Clinical Impression of Change (CIBIC-Plus); type: in vivo, human; design: key to CIBIC Scores, 3 months, Average / CIBIC Scores, 6 months, Average: 7-point scale: 1 = very much improved, 4 = no change, 7 = very much worse
Experimental: Neuropsychological Assessment: The Clinical Impression of Change (CIBIC-Plus) and the Global Deterioration Scale (GDS) were recorded at 3 and 6 months. The Clinical Impression of Change (CIBIC-Plus) consists of the holistic impression by the clinician of whether the patient has shown any change since baseline as rated on a seven point sale (marked, moderate, mild improvement, no change, or marked, moderate, mild decline). The Global Deterioration Scale rates clinically identifiable stages of dementia. […] This test provides a holistic impression by the clinician of whether the patient has shown any change since baseline. The CIBIC is scored as a seven point scale, with a range from 1=“very much improved” to 4=“no change” to 7=“very much worse.” Changes in the CIBIC score have shown only weak correlation with changes in the ADAS-Cog and have been reported to be less sensitive to change than other measures. The FDA guidelines are widely interpreted as mandating the use of the CIBIC and this scale serves to measure the impact of treatment protocols on the quality of life for the patient.

[4] = tested on: lipid peroxidation; test: clinical trial: lipid peroxidation in the CSF (TBARS); type: in vivo, human
Experimental: In order to assess the antioxidant properties of probucol we analyzed lipid peroxidation levels in the CSF of patients before and after one month of treatment with probucol (one month). In vitro lipid peroxidation was measured according to the method of Ohkawa et al. (Anal. Biochem., 95:351-358 (1979)) with some modifications. Briefly, cerebrospinal fluid samples from Alzheimer's disease patients were prepared in 20 volumes of phosphate buffer (pH=7) (95% N2, 5% CO2) with a Teflon homogenizer. After centrifugation (1000 g, 10 min., 2° C.), the supernatant was precipitated with trichloroacetic acid (72%) according to Brown et al. (Anal. Biochem., 189:136-139 (1989)). This procedure removed material such as non-lipid-derived malondialdehyde (MDA) that could interfere with lipid peroxidation measurement. After precipitation with trichloracetic acid and centrifugation (10000 g, 15 min., 2° C.), 100 μl of the supernatant containing human brain homogenates was used to measure MDA levels. These supernatants were incubated with 20 μl of SDS 10%, 150 μl of acetic acid 20% (pH 3.5), and 150 μl of thiobarbituric acid (TBA) (0.6% in 0.05 N NaOH) and heated at 100° C. for 60 min. This step was performed under a controlled atmosphere (95% N^2, 5% CO^2) in sealed vials to avoid formation of MDA during heating. At the end of the incubation, the reaction was stopped at 4° C. The MDA-TBA complex of TBARS (thiobarbituric acid reactive substances) was then extracted with 300 μl of butanol/pyridine (15:1) by strong shaking (for 30 sec.) followed by centrifugation (1000 g, 10 min., 4° C.).

[5] = tested on: ApoE-knockout mice; test: ApoE knockout mouse transient focal ischemia stroke model; type: in vivo; conditions: 5 mg i.p. daily for ten days, if ApoE induction is necessary for neuroprotection
Experimental: To extend these animal studies, the ApoE knockout mouse may be exploited to assess the role of ApoE in probucol-mediated neuroprotection for stroke.
This protocol is carried out as similarly described for the rat model above, with some modifications. […] On the tenth day, animals are subjected to a transient focal ischemia by intraluminal occlusion of the middle cerebral artery. Infarct volume, neurological outcome, and cerebral flow will be monitored.

[6] = Blood, 0.1 mg i.p. daily for ten days
[7] = Blood, 0.5 mg i.p. daily for ten days
[8] = Blood, 5.0 mg i.p. daily for ten days
[9] = Hippocampus, 0.1 mg i.p. daily for ten days
[10] = Hippocampus, 0.5 mg i.p. daily for ten days
[11] = Hippocampus, 5.0 mg i.p. daily for ten days
[12] = Liver, 0.1 mg i.p. daily for ten days
[13] = Liver, 0.5 mg i.p. daily for ten days
[14] = Liver, 5.0 mg i.p. daily for ten days
[15] = highest administered dose (5 mg), ten days
[16] = average of patients, baseline average 66.8
[17] = individual AD patient, 117 is the best possible score
[18] = individual AD patient, 1 very much improved, 4 no change, 7 very much worse

In the case of `CC(C)(Sc1cc(C(C)(C)C)c(O)c(C(C)(C)C)c1)Sc1cc(C(C)(C)C)c(O)c(C(C)(C)C)c1` [probucol], the “ApoE G/Dens (% Peak)” value [1, 6] is reported as 70.886 % Peak, the “ApoE G/Dens-DD” value [1, 6] is reported as 0.2783 and the “ApoE G/DxA (% Total)” value [1, 6] is reported as 19.187 % Total. For the same compound, the “ApoE G/Dens (% Peak)” value [1, 7] was 57.610 % Peak, the “ApoE G/Dens-DD” value [1, 7] was 0.2262 and the “ApoE G/DxA (% Total)” value [1, 7] was 14.885 % Total. For the same compound, the “ApoE G/Dens (% Peak)” value [1, 8] was 45.847 % Peak, the “ApoE G/Dens-DD” value [1, 8] was 0.1800 and the “ApoE G/DxA (% Total)” value [1, 8] was 11.846 % Total. For the same compound, the “ApoE G/Dens (% Peak)” value [1, 9] was 18.571 % Peak, the “ApoE G/Dens-DD” value [1, 9] was 0.0729 and the “ApoE G/DxA (% Total)” value [1, 9] was 4.570 % Total. The “ApoE G/Dens (% Peak)” value [1, 10] was 14.958 % Peak, the “ApoE G/Dens-DD” value [1, 10] was 0.0587 and the “ApoE G/DxA (% Total)” value [1, 10] was 3.497 % Total. The “ApoE G/Dens (% Peak)” value [1, 11] was 25.469 % Peak, the “ApoE G/Dens-DD” value [1, 11] was 0.1000 and the “ApoE G/DxA (% Total)” value [1, 11] was 5.954 % Total. For the same compound, the “ApoE G/Dens (% Peak)” value [1, 12] was 21.386 % Peak, the “ApoE G/Dens-DD” value [1, 12] was 0.0840 and the “ApoE G/DxA (% Total)” value [1, 12] was 5.263 % Total. For the same compound, the “ApoE G/Dens (% Peak)” value [1, 13] was 11.315 % Peak, the “ApoE G/Dens-DD” value [1, 13] was 0.0444 and the “ApoE G/DxA (% Total)” value [1, 13] was 2.506 % Total. The “ApoE G/Dens (% Peak)” value [1, 14] was 8.268 % Peak, the “ApoE G/Dens-DD” value [1, 14] was 0.0325 and the “ApoE G/DxA (% Total)” value [1, 14] was 1.933 % Total. For the same compound, the “levels of ApoE in the blood, % of the control value” [1, 15] was 60%, the “levels of ApoE in the liver, % of the control value” [1, 15] was 60% and the “levels of ApoE in the brain, % of the control value” ([1]; highest dose evaluated (5 mg), ten days) was “approximately 150%”. The “ADAS-Cog (117 point scale) score, 3 months, Average” value [2, 16] was 65.6, the “ADAS-Cog (117 point scale) score, 6 months, Average” value [2, 16] was 68.1 and the “ADAS-Cog (117 point scale) score, 3 months” value [2, 17] was 73 (2×) and 51 and 63 (3×) and 83 and 56. The “ADAS-Cog (117 point scale) score, 6 months” value [2, 17] was 74 and 49 and 82 (2×) and 63 and 58 and 72 and 65, the “number of patients that appeared to stabilize or improve, ADAS-Cog (117 point scale)” value ([2]; six month treatment, eight patients) was “five” and the “CIBIC-Plus evaluation for the group as a whole” value ([3]; 6 month course of treatment) was “slight deterioration”. The “CIBIC Scores, 3 months, Average” value ([3]; average of patients) was 3.9, the “CIBIC Scores, 6 months, Average” value ([3]; average of patients) was 5.3 and the “CIBIC Scores, 3 months” value [3, 18] was 3 (3×) and 5 (2×) and 4 (4×). The “CIBIC Scores, 6 months” value [3, 18] was 5 (4×) and 6 (3×) and 4, the “Lipid Peroxidation, Change (% Baseline), average” value ([4]; 1 month, average for eight patients) was 100.9 % Baseline and the “Lipid Peroxidation, Change (% baseline)” value ([4]; 1 month, individual AD patient) was 100.3 % baseline and 97.4 % baseline and 94.8 % baseline and 97.5 % baseline and 104.2 % baseline and 92.8 % baseline and 103.8 % baseline and 116.1 % baseline. For the same compound, the “Lipid Peroxidation, 1 month” value ([4]; individual AD patient, average of 4-6 determinations) was 0.705 Fluorescence Units and 0.686 Fluorescence Units and 0.687 Fluorescence Units and 0.692 Fluorescence Units and 0.744 Fluorescence Units and 0.691 Fluorescence Units and 0.731 Fluorescence Units and 0.824 Fluorescence Units and the “benefit in ApoE-knockout animals” value [5] was “little or no benefit”.
